Source: patent US8580794B2 (AbbVie Inc., priority 2009, dated 2013)

Target: GST-Bc1-2 (Homo sapiens, UniProt P10415)
Assay: Time Resolved-Fluorescence Resonance Energy Transfer (TR-FRET) Bcl-2 binding assay with F-Bak peptide probe
Conditions: GST-Bcl-2 1 nM, F-Bak probe 100 nM, Tb-anti-GST 1 nM; '<' = below limit of detection; read-out: TR-FRET Bcl-2 Binding Ki

Sequence of GST-Bc1-2 (P10415 whole entry): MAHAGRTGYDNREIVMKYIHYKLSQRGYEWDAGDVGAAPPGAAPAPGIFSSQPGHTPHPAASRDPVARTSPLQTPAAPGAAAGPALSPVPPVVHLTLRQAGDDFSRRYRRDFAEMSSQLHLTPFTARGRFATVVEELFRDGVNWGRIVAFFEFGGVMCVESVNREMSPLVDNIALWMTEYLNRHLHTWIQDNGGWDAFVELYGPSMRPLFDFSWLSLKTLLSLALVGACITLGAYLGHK

| SMILES | Ki |
| --- | --- |
| CC1(C)CCC(CN2CCN(c3ccc(C(=O)NS(=O)(=O)c4ccc(NCC5CCCN(S(C)(=O)=O)C5)c([N+](=O)[O-])c4)c(Oc4cnc5[nH]ccc5c4)c3)CC2)=C(c2ccc(Cl)cc2)C1 (stereo not shown) [Example 147, 4-(4-{[2-(4-chlorophenyl)-4,4-dimethylcyclohex-1-en-1-yl]methyl}piperazin-1-yl)-N-{[4-({[1-(methylsulfonyl)piperidin-3-yl]methyl}amino)-3-nitrophenyl]sulfonyl}-2-(1H-pyrrolo[2,3-b]pyridin-5-yloxy)benzamide] | < 0.01 nM |
| CC(=O)N1CCCC(CNc2ccc(S(=O)(=O)NC(=O)c3ccc(N4CCN(CC5=C(c6ccc(Cl)cc6)CC(C)(C)CC5)CC4)cc3Oc3cnc4[nH]ccc4c3)cc2[N+](=O)[O-])C1 (stereo not shown) [Example 148, N-[(4-{[(1-acetylpiperidin-3-yl)methyl]amino}-3-nitrophenyl)sulfonyl]-4-(4-{[2-(4-chlorophenyl)-4,4-dimethylcyclohex-1-en-1-yl]methyl}piperazin-1-yl)-2-(1H-pyrrolo[2,3-b]pyridin-5-yloxy)benzamide] | < 0.01 nM |
| CC1(C)CCC(CN2CCN(c3ccc(C(=O)NS(=O)(=O)c4ccc(N[C@@H]5CCN(S(C)(=O)=O)C5)c([N+](=O)[O-])c4)c(Oc4cnc5[nH]ccc5c4)c3)CC2)=C(c2ccc(Cl)cc2)C1 [Example 149, 4-(4-{[2-(4-chlorophenyl)-4,4-dimethylcyclohex-1-en-1-yl]methyl}piperazin-1-yl)-N-[(4-{[(3R)-1-(methylsulfonyl)pyrrolidin-3-yl]amino}-3-nitrophenyl)sulfonyl]-2-(1H-pyrrolo[2,3-b]pyridin-5-yloxy)benzamide] | < 0.01 nM |
| CC1(C)CCCC(CN2CCN(c3ccc(C(=O)NS(=O)(=O)c4ccc(NCC5CCOCC5)c([N+](=O)[O-])c4)c(Oc4cnc5[nH]ccc5c4)c3)CC2)=C1c1ccc(Cl)cc1 [Example 150, 4-(4-{[2-(4-chlorophenyl)-3,3-dimethylcyclohex-1-en-1-yl]methyl}piperazin-1-yl)-N-({3-nitro-4-[(tetrahydro-2H-pyran-4-ylmethyl)amino]phenyl}sulfonyl)-2-(1H-pyrrolo[2,3-b]pyridin-5-yloxy)benzamide] | < 0.01 nM |
| CC1(C)CCC(CN2CCN(c3ccc(C(=O)NS(=O)(=O)c4ccc(NC5CN(C(CF)CF)C5)c([N+](=O)[O-])c4)c(Oc4cnc5[nH]ccc5c4)c3)CC2)=C(c2ccc(Cl)cc2)C1 [Example 151, 4-(4-{[2-(4-chlorophenyl)-4,4-dimethylcyclohex-1-en-1-yl]methyl}piperazin-1-yl)-N-{[4-({1-[2-fluoro-1-(fluoromethyl)ethyl]azetidin-3-yl}amino)-3-nitrophenyl]sulfonyl}-2-(1H-pyrrolo[2,3-b]pyridin-5-yloxy)benzamide] | 0.017 nM |
| CC1(C)CCC(CN2CCN(c3ccc(C(=O)NS(=O)(=O)c4ccc(NCC5CCN(S(C)(=O)=O)C5)c([N+](=O)[O-])c4)c(Oc4cnc5[nH]ccc5c4)c3)CC2)=C(c2ccc(Cl)cc2)C1 (stereo not shown) [Example 152, 4-(4-{[2-(4-chlorophenyl)-4,4-dimethylcyclohex-1-en-1-yl]methyl}piperazin-1-yl)-N-{[4-({[1-(methylsulfonyl)pyrrolidin-3-yl]methyl}amino)-3-nitrophenyl]sulfonyl}-2-(1H-pyrrolo[2,3-b]pyridin-5-yloxy)benzamide] | < 0.01 nM |
| CC(=O)N1CCC(CNc2ccc(S(=O)(=O)NC(=O)c3ccc(N4CCN(CC5=C(c6ccc(Cl)cc6)CC(C)(C)CC5)CC4)cc3Oc3cnc4[nH]ccc4c3)cc2[N+](=O)[O-])C1 (stereo not shown) [Example 153, N-[(4-{[(1-acetylpyrrolidin-3-yl)methyl]amino}-3-nitrophenyl)sulfonyl]-4-(4-{[2-(4-chlorophenyl)-4,4-dimethylcyclohex-1-en-1-yl]methyl}piperazin-1-yl)-2-(1H-pyrrolo[2,3-b]pyridin-5-yloxy)benzamide] | < 0.01 nM |
| CC(=O)N1CC[C@@H](Nc2ccc(S(=O)(=O)NC(=O)c3ccc(N4CCN(CC5=C(c6ccc(Cl)cc6)CC(C)(C)CC5)CC4)cc3Oc3cnc4[nH]ccc4c3)cc2[N+](=O)[O-])C1 [Example 154, N-[(4-{[(3R)-1-acetylpyrrolidin-3-yl]amino}-3-nitrophenyl)sulfonyl]-4-(4-{[2-(4-chlorophenyl)-4,4-dimethylcyclohex-1-en-1-yl]methyl}piperazin-1-yl)-2-(1H-pyrrolo[2,3-b]pyridin-5-yloxy)benzamide] | < 0.01 nM |
| COCC(C)(C)CNc1ccc(S(=O)(=O)NC(=O)c2ccc(N3CCN(CC4=C(c5ccc(Cl)cc5)CC(C)(C)CC4)CC3)cc2Oc2cnc3[nH]ccc3c2)cc1[N+](=O)[O-] [Example 155, 4-(4-{[2-(4-chlorophenyl)-4,4-dimethylcyclohex-1-en-1-yl]methyl}piperazin-1-yl)-N-({4-[(3-methoxy-2,2-dimethylpropyl)amino]-3-nitrophenyl}sulfonyl)-2-(1H-pyrrolo[2,3-b]pyridin-5-yloxy)benzamide] | 0.059 nM |
| CC1(C)CCC(CN2CCN(c3ccc(C(=O)NS(=O)(=O)c4ccc(NC[C@@H]5CC[C@@H](O)C5)c([N+](=O)[O-])c4)c(Oc4cnc5[nH]ccc5c4)c3)CC2)=C(c2ccc(Cl)cc2)C1 [Example 156, 4-(4-{[2-(4-chlorophenyl)-4,4-dimethylcyclohex-1-en-1-yl]methyl}piperazin-1-yl)-N-{[4-({[(1R,3R)-3-hydroxycyclopentyl]methyl}amino)-3-nitrophenyl]sulfonyl}-2-(1H-pyrrolo[2,3-b]pyridin-5-yloxy)benzamide] | < 0.01 nM |
| CC1(C)CCC(CN2CCN(c3ccc(C(=O)NS(=O)(=O)c4ccc(NC[C@H]5CC[C@H](O)C5)c([N+](=O)[O-])c4)c(Oc4cnc5[nH]ccc5c4)c3)CC2)=C(c2ccc(Cl)cc2)C1 [Example 157, 4-(4-{[2-(4-chlorophenyl)-4,4-dimethylcyclohex-1-en-1-yl]methyl}piperazin-1-yl)-N-{[4-({[(1S,3S)-3-hydroxycyclopentyl]methyl}amino)-3-nitrophenyl]sulfonyl}-2-(1H-pyrrolo[2,3-b]pyridin-5-yloxy)benzamide] | < 0.01 nM |
| CC1(C)CCC(CN2CCN(c3ccc(C(=O)NS(=O)(=O)c4ccc(NC[C@H]5CC[C@@H](O)C5)c([N+](=O)[O-])c4)c(Oc4cnc5[nH]ccc5c4)c3)CC2)=C(c2ccc(Cl)cc2)C1 [Example 158, 4-(4-{[2-(4-chlorophenyl)-4,4-dimethylcyclohex-1-en-1-yl]methyl}piperazin-1-yl)-N-{[4-({[(1S,3R)-3-hydroxycyclopentyl]methyl}amino)-3-nitrophenyl]sulfonyl}-2-(1H-pyrrolo[2,3-b]pyridin-5-yloxy)benzamide] | < 0.01 nM |
| CC1(C)CCC(CN2CCN(c3ccc(C(=O)NS(=O)(=O)c4ccc(NC[C@@H]5CC[C@H](O)C5)c([N+](=O)[O-])c4)c(Oc4cnc5[nH]ccc5c4)c3)CC2)=C(c2ccc(Cl)cc2)C1 [Example 159, 4-(4-{[2-(4-chlorophenyl)-4,4-dimethylcyclohex-1-en-1-yl]methyl}piperazin-1-yl)-N-{[4-({[(1R,3S)-3-hydroxycyclopentyl]methyl}amino)-3-nitrophenyl]sulfonyl}-2-(1H-pyrrolo[2,3-b]pyridin-5-yloxy)benzamide] | < 0.01 nM |
